This note sets out measurements from patent US9879043B1, “Synthesis of non-natural cofactor analogs of S-adenosyl-L-methionine using methionine adenosyltransferase” (University of Kentucky Research Foundation, priority 2013, dated 2018).

Holding throughout (format): biochemical
Test [1] deals with human MAT I catalytic subunit alpha (hMAT1A) (Homo sapiens, UniProt Q00266). The experiment in a line: MAT assay, turnover of S/Se-Met analogs to S(Se)AM analogs (RP-HPLC end point). The conditions noted are these: 2 mM Met analog, 1 mM ATP, 5 μM MAT, pH 8, 4 h, 37° C.; average of two assays. As for the experimental part: (§1) Standard uniform assay conditions (2 mM Met analog, 1 mM ATP, 5 μM MAT, 25 mM Tris, 5 mM MgCl2, 50 mM KCl, pH 8, 4 h) were adopted to facilitate this broad assessment. For the thermophilic counterpart (mMAT), reactions were conducted at 65° C., while all other reactions were incubated at 37° C. Production of SAM analogs was determined by an RP-HPLC end point assay to afford complete analysis of the desired SAM analog and/or any corresponding degradation products known to directly derive from the desired SAM analog intermediate.
(§2) To monitor MAT reactions, analytical RP HPLC employed a Luna C18 column (5 μm, 4.6 mm×250 mm; Phenomenex, Torrance, Calif., USA) [gradient of 10% B to 40% B over 15 min, 40% B to 75% B over 5 min (A=10 mM NaH2PO4, 5 mM octane sulfonic acid, pH was adjusted to 3.5 using phosphoric acid; B=acetonitrile) flow rate=1 mL min^−1; A254].
(§3) The sMAT and mMAT reactions were conducted at 65° C. while hMATs and eMAT were incubated at 37° C. Reactions were quenched by adding an equal volume of methanol followed by centrifugation (10,000×g for 15 min) to remove the precipitated protein and product formation for each reaction was subsequently analyzed by RP-HPLC using Method D (FIG. 15, first column). For each reaction, percent yield was based upon the integration of species at 254 nm and calculated by dividing the integrated area of product and/or decomposed product by the sum of integrated area of product and/or decomposed product and the remaining substrate. The assays were repeated twice under identical conditions, and Table 2 (and FIG. 5) represents an average value of two assays. The inclusion of adenine and 5′-R-thio-5′-adenosine in these calculations is based upon the established SAM and ATP chemical decomposition pathways which indicate adenine and 5′-R-thio-5′-adenosine to only derive from SAM (not ATP). All putative products were subsequently confirmed by high resolution electrospray ionization (ESI) mass spectra with positive (+) and/or negative (−) mode.

The target in test [2] is human MAT II catalytic alpha subunit alone (hMAT2A) (Homo sapiens, UniProt P31153). The description is as above. The settings on record: 2 mM Met analog, 1 mM ATP, 5 μM MAT, pH 8, 4 h, 37° C.; average of two assays. As for the experimental part:
as §1, §2, §3

Test [3] addresses human MAT II catalytic alpha and regulatory beta subunit (hMAT2) (Homo sapiens, UniProt P31153). Described as above. The settings on record: 2 mM Met analog, 1 mM ATP, 5 μM MAT, pH 8, 4 h, 37° C.; average of two assays. As for the experimental part: as §1, §2, §3
Test [4] deals with T1, Methanocaldococcus jannaschii MAT (mMAT) (Methanocaldococcus jannaschii, UniProt Q58605).
T1 sequence (Q58605 1-406): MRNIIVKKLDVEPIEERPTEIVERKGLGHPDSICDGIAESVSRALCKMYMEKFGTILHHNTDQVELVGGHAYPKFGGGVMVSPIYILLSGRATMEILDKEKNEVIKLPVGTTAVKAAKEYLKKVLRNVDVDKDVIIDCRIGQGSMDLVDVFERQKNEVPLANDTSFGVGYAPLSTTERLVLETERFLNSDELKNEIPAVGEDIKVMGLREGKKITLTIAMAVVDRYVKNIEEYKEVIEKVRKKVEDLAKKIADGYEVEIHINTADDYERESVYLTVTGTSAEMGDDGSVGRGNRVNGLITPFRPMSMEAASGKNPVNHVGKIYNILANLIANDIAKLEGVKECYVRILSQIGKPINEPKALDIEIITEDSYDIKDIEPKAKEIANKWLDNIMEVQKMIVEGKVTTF
The conditions noted are these: 2 mM Met analog, 1 mM ATP, 5 μM MAT, pH 8, 4 h, 65° C.; average of two assays. As for the experimental part:
as §1, §2, §3

Test [5] concerns the target Escherichia coli MAT (eMAT) (Escherichia coli, UniProt P0A817). Put plainly: MAT assay, turnover of S/Se-Met analogs to S(Se)AM analogs (RP-HPLC end point). The conditions noted are these: 2 mM Met analog, 1 mM ATP, 5 μM MAT, pH 8, 4 h, 37° C.; average of two assays. As for the experimental part:
as §1, with “intermediate. Putative SAM analog and SAM-derived degradative product formation was subsequently confirmed via high-resolution mass spectrometry (HRMS) analysis for all positive reactions (see Table 2).” for “intermediate.”
as §2
as §3, with “In vitro MAT reactions were conducted in a volume of 50 μl with 2 mM S/Se-alkylated analog (compounds 2-30), 1 mM ATP and 5 μM purified MAT in 25 mM Tris buffer pH 8.0, 5 mM MgCl2, 50 mM KCl for 4 h. The sMAT” for “The sMAT”

Test [6] has as its target T2, Sulfolobus solfataricus MAT (sMAT) (Saccharolobus solfataricus, UniProt Q980S9).
T2 sequence (Q980S9 1-404): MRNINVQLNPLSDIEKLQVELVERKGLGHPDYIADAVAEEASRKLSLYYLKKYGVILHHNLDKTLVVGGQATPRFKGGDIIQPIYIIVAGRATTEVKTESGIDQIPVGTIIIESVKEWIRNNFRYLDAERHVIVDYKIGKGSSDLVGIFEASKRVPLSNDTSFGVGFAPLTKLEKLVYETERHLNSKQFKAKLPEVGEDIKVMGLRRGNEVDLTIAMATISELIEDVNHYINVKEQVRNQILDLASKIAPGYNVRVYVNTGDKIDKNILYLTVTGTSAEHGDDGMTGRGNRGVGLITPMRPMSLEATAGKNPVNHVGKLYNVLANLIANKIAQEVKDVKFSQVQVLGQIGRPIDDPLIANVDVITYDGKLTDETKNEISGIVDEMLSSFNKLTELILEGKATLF
The conditions noted are these: 2 mM analog, 1 mM ATP, 5 μM sMAT, pH 8.0, 4 h at 65° C.; average of two assays. As for the experimental part: In-vitro sMAT assay: In vitro sMAT reactions were conducted in a volume of 50 μl with 2 mM S/Se-alkylated analog, 1 mM ATP and 5 μM purified sMAT in 25 mM Tris buffer pH 8.0, 5 mM MgCl2, 50 mM KCl for 4 h at 65° C. Reactions were quenched by adding an equal volume of methanol followed by centrifugation (10,000×g for 15 min) to remove the precipitated protein and product formation for each reaction was subsequently analyzed by reverse phase HPLC (RP-HPLC) using method described below. For each reaction, percent yield was based upon the integration of species at 254 nm and calculated by dividing the integrated area of product and/or decomposed product by the sum of integrated area of product and/or decomposed product and the remaining substrate. The assays were repeated twice under identical conditions, and Table 4 (and FIG. 17) represents an average value of two assays. The inclusion of adenine and 5′-R-thio-5′-adenosine in these calculations is based upon the established SAM and ATP chemical decomposition pathways which indicate adenine and 5′-R-thio-5′-adenosine to only derive from SAM (not ATP). All putative products were subsequently confirmed by high resolution electrospray ionization (ESI) mass spectra with positive (+) and/or negative (−) mode.
RP-HPLC method: Reactions were quenched by the addition of equal volume of methanol followed by centrifugation at 10,000 g for 15 min to remove precipitated protein before applying on an analytical Varian ProStar HPLC [Luna C18 column, 5 μm, 4.6 mm×250 mm; Phenomenex, Torrance, Calif., USA; gradient of 10% B to 40% B over 15 min, 40% B to 75% B over 5 min (A=10 mM NaH2PO4, 5 mM octane sulfonic acid, pH was adjusted to 3.5 using phosphoric acid; B=acetonitrile) flow rate=1 mL min^−1; A254].

Consider `CC(C)=CCSCC[C@H](N)C(=O)O` [compound 19, (2S)-2-amino-4-[(3-methylbut-2-en-1-yl)sulfanyl]butanoic acid], for which the “Percentage Turn-over hMAT1A” value in test [1] is recorded as 0%. Also, the “Percentage Turn-over hMAT2A” value in test [2] is on record as 4%. In test [3], the “Percentage Turn-over hMAT2” value is 6%. Moreover, in test [4], the “Percentage Turn-over mMAT” value amounted to 13%. Also, the “Percentage Turn-over eMAT” value in test [5] is given as 3%. For the same molecule, in test [6], the “Percentage Turn-Over (sMAT)” value worked out at 12%.

As to `C=C(C)CSCC[C@H](N)C(=O)O` [compound 12, (2S)-2-amino-4-[(2-methylprop-2-en-1-yl)sulfanyl]butanoic acid], the “Percentage Turn-over hMAT1A” value in test [1] turned out to be 0%. Moreover, the “Percentage Turn-over hMAT2A” value in test [2] is 2%. Moreover, the “Percentage Turn-over hMAT2” value in test [3] is recorded as 2%. The “Percentage Turn-over mMAT” value in test [4] was 6%. Also, the “Percentage Turn-over eMAT” value in test [5] stood at 0%. Further, the “Percentage Turn-Over (sMAT)” value in test [6] stood at 15%.

For `[N-]=[N+]=NCCCSCC[C@H](N)C(=O)O` [compound 21, (2S)-2-amino-4-[(3-azidopropyl)sulfanyl]butanoic acid], the “Percentage Turn-over hMAT1A” value in test [1] is recorded as 0%. For the same molecule, in test [2], the “Percentage Turn-over hMAT2A” value is 19%. Also, the “Percentage Turn-over hMAT2” value in test [3] was 46%. Besides, the “Percentage Turn-over mMAT” value in test [4] was 31%. The “Percentage Turn-over eMAT” value in test [5] amounted to 0%. In addition, in test [6], the “Percentage Turn-Over (sMAT)” value came to 60%.

For the molecule `C/C=C/CSCC[C@H](N)C(=O)O` [compound 11, (2S)-2-amino-4-[(2E)-but-2-en-1-ylsulfanyl]butanoic acid], in test [1], the “Percentage Turn-over hMAT1A” value is on record as 2%. For the same molecule, in test [2], the “Percentage Turn-over hMAT2A” value is 5%. Besides, in test [3], the “Percentage Turn-over hMAT2” value amounted to 25%. Also, the “Percentage Turn-over mMAT” value in test [4] came to 30%. Besides, the “Percentage Turn-over eMAT” value in test [5] was 2%. Moreover, the “Percentage Turn-Over (sMAT)” value in test [6] was determined as 27%.

`C=C/C=C/CSCC[C@H](N)C(=O)O` [compound 16, (2S)-2-amino-4-[(2E)-penta-2,4-dien-1-ylsulfanyl]butanoic acid]: the “Percentage Turn-over hMAT1A” value in test [1] amounted to 2%. In addition, the “Percentage Turn-over hMAT2A” value in test [2] is recorded as 4%. Besides, the “Percentage Turn-over hMAT2” value in test [3] came to 44%. The “Percentage Turn-over mMAT” value in test [4] was 8%. Further, the “Percentage Turn-over eMAT” value in test [5] was 4%. For the same molecule, in test [6], the “Percentage Turn-Over (sMAT)” value came out at 14%.

`[N-]=[N+]=NC/C=C/CSCC[C@H](N)C(=O)O` [compound 23, (2S)-2-amino-4-{[(2E)-4-azidobut-2-en-1-yl]sulfanyl}butanoic acid]: the “Percentage Turn-over hMAT1A” value in test [1] worked out at 2%. Besides, in test [2], the “Percentage Turn-over hMAT2A” value came to 5%. Besides, the “Percentage Turn-over hMAT2” value in test [3] is 12%. The “Percentage Turn-over mMAT” value in test [4] stood at 32%. The “Percentage Turn-over eMAT” value in test [5] is 0%. For the same molecule, in test [6], the “Percentage Turn-Over (sMAT)” value came out at 28%.

Regarding `CCCSCC[C@H](N)C(=O)O` [compound 8, (2S)-2-amino-4-(propylsulfanyl)butanoic acid], the “Percentage Turn-over hMAT1A” value in test [1] is given as 5%. The “Percentage Turn-over hMAT2A” value in test [2] amounted to 54%. Also, in test [3], the “Percentage Turn-over hMAT2” value stood at 55%. The “Percentage Turn-over mMAT” value in test [4] came to 21%. Also, the “Percentage Turn-over eMAT” value in test [5] is listed as 2%. Also, the “Percentage Turn-Over (sMAT)” value in test [6] stood at 44%.

As to `C=CCSCC[C@H](N)C(=O)O` [compound 7, (2S)-2-amino-4-(prop-2-en-1-ylsulfanyl)butanoic acid], the “Percentage Turn-over hMAT1A” value in test [1] was 5%. For the same molecule, in test [2], the “Percentage Turn-over hMAT2A” value came out at 50%. For the same molecule, the “Percentage Turn-over hMAT2” value in test [3] stood at 52%. Moreover, the “Percentage Turn-over mMAT” value in test [4] was found to be 16%. In addition, the “Percentage Turn-over eMAT” value in test [5] was 2%. Moreover, in test [6], the “Percentage Turn-Over (sMAT)” value was found to be 27%.

Regarding `N#CCSCC[C@H](N)C(=O)O` [compound 6, (2S)-2-amino-4-[(cyanomethyl)sulfanyl]butanoic acid], the “Percentage Turn-over hMAT1A” value in test [1] is 2%. For the same molecule, the “Percentage Turn-over hMAT2A” value in test [2] turned out to be 13%. In addition, in test [3], the “Percentage Turn-over hMAT2” value is 20%. Also, the “Percentage Turn-over mMAT” value in test [4] turned out to be 6%. In addition, in test [5], the “Percentage Turn-over eMAT” value is reported as 2%. Besides, the “Percentage Turn-Over (sMAT)” value in test [6] is reported as 68%.
